Values joined by “and” are separate entries in the source; they are usually repeats but may differ in a detail not shown here. Identical values can stand only once.
Legend:
[1] = test system: Sterol response element binding protein 1 & 2 (SREBP); experiment: transcriptional activity of SREBP
[2] = test system: fully differentiated 3T3L1 adipocytes; experiment: glucose uptake in 3T3L1 adipocytes; assay type: cell-based; details: insulin as positive control
Description: The compound 2,2,15,15-tetramethylhexadecane-1,16-dioic acid (also designated M16αα), and also the compounds […] (M18αα) and 2,2,19,19-tetramethyl-[…]-1,20-dioic acid (M20αα), were tested for their effect on glucose uptake and production, and the expression of glucose- and lipid-related genes in in vitro models. […] Inhibition of glucose production was tested in HepG2 human liver cells.

half-life in rats = details: rat, in vivo, read-out: half-life (T1/2) (converted)
Description: (§1) The half-life (T1/2) of Medica compounds in humans differs considerably from their half-life in model animals. […] This difference in half-life could not be expected, and is of considerable significance when designing a new treatment protocol for humans.

half-life in dogs = details: dog, in vivo, read-out: half-life (T1/2) (converted)
Description: as §1

[3] = test system: Type 2 Diabetes Mellitus (T2D) patients; experiment: 4-week M16αα study in T2D patients, efficacy; assay type: in vivo, human; details: for Comp ISI / HP ISI / HbA1c Day 90 - extrapolated / IR / HbA1c Day 28: after
Description: Exploratory, double-blind, randomized, placebo-controlled study, to evaluate the safety, efficacy and pharmacokinetics of 4-week M16αα treatment of Type 2 Diabetes Mellitus (T2D) patients. T2D patients were either non-treated or receiving ongoing treatment with metformin alone or in combination with other standard-of-care (SoC) oral or parenteral antidiabetic drug/s. T2D patients, non-treated or treated with SoC antidiabetic drugs as outlined below, were screened for eligibility (inclusion/exclusion according to criteria detailed below), followed by being randomly allocated to receive once daily either add-on M16αα (40 mg M16αα plus 130 mg microcrystalline cellulose in gelatin capsules) or add-on placebo (130 mg microcrystalline cellulose in gelatin capsules), in addition to the SoC anti-diabetic treatment they have been receiving regularly. One patient was not under SoC anti-diabetic drug treatment. Sixteen (16) patients were randomized to M16αα treatment and 3 patients were randomized to placebo treatment. Patients randomized to M16αα treatment were dosed for 28 days with add-on M16αα in double-blinded manner, followed by 4-week recovery period using add-on placebo in a single-blinded manner. Patients randomized to placebo treatment were dosed for 28 days with add-on placebo in double-blinded manner. Cohort 1 included 6 uncontrolled T2D patients (HbA1c>7.3%), 5 treated for their hyperglycemia by metformin only (patients 101, 102, 103, 105, 106), and one naïve patient (not under SoC anti-diabetic treatment, patient 108). Cohort 2 included 6 T2D patients (HbA1c>7.3%) (patients 202, 203, 205, 206, 207, 210) treated for their hyperglycemia by a variety of SoC anti-diabetic drug/s except insulin/insulin analogs (metformin plus sulphonylurea and/or DPP4 inhibitor and/or GLP1 analog and/or SGLT2 inhibitor). Cohort 3 included 4 T2D patients (HbA1c>7.3%) treated for their hyperglycemia by basal insulin analogs and a variety of anti-diabetic drugs (metformin and/or sulphonylurea and/or DPP4 inhibitor and/or GLP1 analog and/or SGLT2 inhibitor). During the study period the subjects underwent physical examination, clinical pathology, hematology, urinalysis, lipid profile, HbA1C, continuous glucose monitoring (CGM) and an oral glucose tolerance test (OGTT) (75 g glucose; glucose, insulin, c-peptide; 0, 30, 60, 120, 180 min) prior to dosing, upon end of M16αα treatment, and following the recovery period (EOS visit). HbA1c, Continuous glucose monitoring (CGMS), OGTT (Glucose/Insulin/C-peptide), HOMA, Hepatic Insulin Sensitization Index (HP ISI), Composite insulin sensitization index (Comp ISI), Insulin resistance (IR), plasma lipid profile (Triglycerides, Cholesterol, LDL-C, VLDL-C, HDL-C, non-HDL-C, apoB), hsCRP, Fibrinogen. All measured variables and derived parameters were listed individually and tabulated by descriptive statistics. For descriptive statistics summary tables were provided giving sample size, means, standard deviations and 95% CI (Confidence Interval) or frequency with percentage according to the scale of the variable. Regarding small sample size, non-parametric methods were conducted: Differences between end of drug dosing and baseline for each efficacy parameter were analyzed using the Wilkcoxon matched-pairs signed-ranks test. Differences between M16αα-treated and placebo groups were analyzed for each efficacy parameter using the Mann-Whitney two-sample U-test. Drug: 40 mg 2,2,15,15-tetramethylhexadecane-dioic acid (M16αα) per day, in a gelatin capsule. This daily dose of M16αα is based on safety and PK considerations in a previous, single-dose study in healthy volunteers and pre-clinical data. Administration: oral, before breakfast, with 240 ml water, for both drug and placebo. M16αα or placebo were administered orally for 28 consecutive days, followed by additional 28 days of placebo. End of Study (EOS) visit took place about 4 weeks after last dose of M16αα administered. […]

[4] = Cohort 1 single patients 101, 102, 106 on metformin only, add-on 40 mg/day
[5] = Cohort 2 single patients 202, 205, 206 on SoC drugs except insulin, add-on 40 mg/day
[6] = Cohort 3 single patients 301-304 on basal insulin analogs and other drugs, add-on 40 mg/day
[7] = patient 108, no ongoing anti-diabetic treatment, 40 mg/day
[8] = baseline 1.0, all patients on add-on M16αα
[9] = estimated by linear extrapolation from 28 d
[10] = weighted average, all patients on add-on M16αα

CC(C)(CCCCCCCCCCCCC(C)(C)C(=O)O)C(=O)O [M16αα, 2,2,15,15-tetramethyl-hexadecane-1,16-dioic acid]
transcriptional activity of SREBP [1]: suppressing
glucose uptake [2]: increase glucose uptake
half-life (half-life in rats): 144 ± 36 min
half-life (half-life in dogs): 2.71 days
Continuous glucose monitoring [CGM(<180 mg %)], Change in Baseline: Increase by ([3]; % of time with glucose lower than 180 mg %, baseline 71 ± 25%): Increase by 8.4%
insulin sensitizing activity compared with add-on pioglitazone ([3]; M16αα added-on to metformin): surpasses that reported for add-on Pio
diabetic profile ([3]; T2D patient not under anti-diabetic SoC, low dose): significantly improved diabetic profile
prospective glucose-lowering activity compared with SoC oral anti-diabetic drugs ([3]; add-on M16αα): surpasses those reported for current SoC oral anti-diabetic drugs
Comp ISI [3, 4]: 19.17 and 5.0 and 10.10
HP ISI [3, 4]: 9.5 and 2.3 and 2.1
HbA1c Day 90 - extrapolated [3, 4]: 5.3 and 5.9 and 5.4
IR [3, 4]: 0.4 and 0.6 and 0.5
HbA1c Day 28 ([3]; Cohort 1 single patients 101, 102, 106 on metformin only, add-on 40 mg/day oral 28 d): 6.7 and 6.9 and 6.8
Comp ISI [3, 5]: 2.2 and 4.7 and 5.5
HP ISI [3, 5]: 0.4 and 0.6 and 1.1
HbA1c Day 90 - extrapolated [3, 5]: 6.0 and 8.1 and 4.1
IR [3, 5]: 2.2 and 1.8 and 0.9
HbA1c Day 28 ([3]; Cohort 2 single patients 202, 205, 206 on SoC drugs except insulin, add-on 40 mg/day oral 28 d): 6.8 and 8.1 and 7.1
Comp ISI [3, 6]: 4.6 and 6.9 and 6.3
HP ISI [3, 6]: 0.79 and 0.88 and 1.33 and 1.41
IR [3, 6]: 1.4 and 1.1 and 0.8 and 0.7
HbA1c Day 28 ([3]; Cohort 3 single patients 301-304 on basal insulin analogs and other drugs, add-on 40 mg/day oral 28 d): 8.17 and 7.33 and 7.52 and 8.73
Comp ISI [3, 7]: 5.8
HP ISI [3, 7]: 1.6
HbA1c Day 90 - extrapolated [3, 7]: 7.6
IR [3, 7]: 0.6
HbA1c Day 28 ([3]; patient 108, no ongoing anti-diabetic treatment, 40 mg/day oral 28 d): 7.6
Composite insulin sensitization index (CompISI), Change in Baseline: Increase by [3, 8]: Increase by 2.04-fold
HOMA insulin resistance (HOMAIR), Change in Baseline: Increase by [3, 8]: Increase by 0.59-fold
Hepatic insulin sensitization index (HepISI), Change in Baseline: Increase by [3, 8]: Increase by 2.50-fold
HOMA % B, Change in Baseline: Decrease by ([3]; baseline 1.0, beta-cell rest): Decrease by 0.81-fold
Bodyweight, Change in Baseline: Decrease by ([3]; baseline 88 ± 9 kg): Decrease by 0.6 kg
Σglucose (OGTT 0, 30, 60, 120, 180 min), Change in Baseline: Decrease by ([3]; baseline 100, all patients on add-on M16αα): Decrease by 7.8%
Σc-peptide (OGTT 0, 30, 60, 120, 180 min), Change in Baseline: Decrease by ([3]; baseline 100, beta-cell rest): Decrease by 17%
Hypertension, Change in Baseline ([3]; baseline 136 ± 13/75 ± 7): Decrease in 5 patients
Fasting blood glucose (FBG), Change in Baseline: Decrease by ([3]; baseline 159 ± 56 mg/dL, all patients on add-on M16αα): Decrease by 11.7%
Plasma triglycerides, Change in Baseline: Decrease by ([3]; baseline 169 ± 95 mg/dL): Decrease by 18%
HbA1C (%) (Estimated 90 d), Change in Baseline: Decrease by [3, 9]: Decrease by 0.96-1.44%
HbA1C (Estimated 90 d), Change in Baseline: Decrease [3, 9]: (10.6-15.8 mmol/mol)
HbA1C (Estimated 90 d), Change in Baseline: Decrease as eAG [3, 9]: (eAG 28-42 mg/dL)
effectiveness as add-on drug ([3]; patients under anti-diabetic SoC): effective as an add-on drug
HbA1C (28 d), Change in Baseline: Decrease [3, 10]: (5.28 mmol/mol)
HbA1C (28 d), Change in Baseline: Decrease as eAG [3, 10]: (eAG 14 mg/dL)
HbA1C (%) (28 d), Change in Baseline: Decrease by ([3]; weighted average, all patients on add-on M16αα 40 mg/day, baseline 7.96 ± 0.81): Decrease by 0.48%

Reference: patent US11207285B2, “Diabetes treatment regimens using alpha, alpha-substituted long-chain amphipathic carboxylates” (SYNDROMEX LTD., priority 2016, dated 2021)
